{"source": "patent US10624905B2", "about": "“Corticosteroids for the treatment of joint pain” (Flexion Therapeutics, Inc., priority 2013, dated 2020)", "key": {"[1]": {"tested_on": "endogenous cortisol production", "experiment": "Steady-state doses and plasma concentrations for target suppression of endogenous cortisol production", "set-up": "species or system human", "details": "steady-state HPA axis suppression", "experimental": "In this regard, it has been determined that standard doses of familiar corticosteroids, when examined from the viewpoint of steady-state HPA axis suppression (i.e., after desensitization has occurred), provide clinically useful benchmarks. For example, while oral prednisolone given at 20 mg QD produces a 73% cortisol suppression, even 5 mg QD (considered a “low dose”) is associated with a 40% suppression of endogenous cortisol production. […]\nAs a result of these clinical findings, the dose range to achieve clinically useful analgesia, with minimal or controlled modulation of the HPA axis, at steady state concentrations of various corticosteroids has been determined (Table 2). […]\nIn addition, with these continuous daily doses of intra-articular corticosteroids, it is possible to determine the related systemic plasma level concentrations (Table 3) that will produce the target cortisol inhibition and not beyond, this while retaining clinically important anti-inflammatory and analgesic activity within the joint. […] The levels calculated in Table 3 were purely hypothetical calculations based on human data with immediate release-level doses from the literature. […] A given level of plasma concentration may actually provide less inhibition that would have been predicted or calculated using the human IR levels from the literature. […]"}, "[2]": {"tested_on": "HPA axis (corticosterone levels)", "experiment": "Inhibition of the HPA axis (corticosterone levels) in rats, PK-PD analysis", "assay_type": "in vivo", "details": "rat, PK-PD inhibitory model"}, "[3]": {"tested_on": "rat model of osteoarthritis of the knee (PGPS)", "experiment": "Rat PGPS model of osteoarthritis of the knee: histopathology of the knees", "assay_type": "in vivo", "details": "inflammatory milieu", "experimental": "Efficacy of single intra-articular (IA) doses of FX006 (TCA in 75:25 PLGA formulation microparticles) and TCA IR (immediate release) was evaluated in a rat model of osteoarthritis of the knee via sensitization and challenge by peptidoglycan polysaccharide (PGPS). The model involves priming the animals with an intra-articular injection of PGPS in the right knee. The following day, any animals with no knee discomfort were eliminated from the test article groups and placed into the baseline group. Two weeks later, knee inflammation was reactivated by a tail vein injection of PGPS, 2.5 hr following IA dosing with FX006 or TCA IR at the doses selected (n=10/group). Differences in weight-bearing and gait (as a measure of joint pain experienced by the animals), histopathology, plasma PK etc. were evaluated."}, "[4]": {"details": "cited from earlier work"}, "HPA axis": {"tested_on": "HPA axis", "details": "20 mg intra-articular injection; day 3; transient; cited from earlier work"}, "[5]": {"details": "TCA in rat plasma, i.v. 50 mg/kg bolus + 23 mg/kg/h infusion, cited from earlier work"}}, "note": "Values joined by “and” are separate entries in the source; they are usually repeats but may differ in a detail not shown here. Equal values may be shown once. Read-outs that look alike come from different tables or passages of the source.", "data": [{"molecule": "C[C@]12C=CC(=O)C=C1CC[C@@H]1[C@@H]2[C@@H](O)C[C@@]2(C)[C@H]1CC[C@]2(O)C(=O)CO", "note": "[prednisolone, 11β,17,21-trihydroxypregna-1,4-diene-3,20-dione]", "values": [{"measurement": "suppression of endogenous cortisol production", "setting": "[1]; oral 5 mg QD", "result": 40, "unit": "%"}, {"measurement": "cortisol suppression", "setting": "[1]; oral 20 mg QD", "result": 73, "unit": "%"}]}, {"molecule": "CC1(C)O[C@@H]2C[C@H]3[C@@H]4CCC5=CC(=O)C=C[C@]5(C)[C@@]4(F)[C@@H](O)C[C@]3(C)[C@]2(C(=O)CO)O1", "note": "[triamcinolone acetonide, 9α-Fluoro-11β,16α,17α,21-tetrahydroxy-1,4-pregnadiene-3,20-dione 16,17-acetonide]", "values": [{"measurement": "systemic TCA level at which Emax of corticosterone inhibition was achieved", "setting": "[2]", "result": "50 to 80", "unit": "ng/mL"}, {"measurement": "IC50", "setting": "[2]; read-out: IC50 of corticosterone inhibition versus systemic TCA levels", "result": "~1", "unit": "ng/mL"}, {"measurement": "effect on cartilage", "setting": "[3]", "result": "no deleterious effect on cartilage"}, {"measurement": "contribution of the immediate release component to the plasma concentration", "setting": "[4]; 40 mg immediate release, intra-articular, by day 12", "result": "less than 0.1 ng/ml"}, {"measurement": "peak plasma concentration", "setting": "[4]; 40 mg immediate release, intra-articular, day 1", "result": "approximately 10 ng/ml"}]}, {"molecule": "CC(C)(C)CC(=O)OCC(=O)[C@@]12OC(C)(C)O[C@@H]1C[C@H]1[C@@H]3CCC4=CC(=O)C=C[C@]4(C)[C@@]3(F)[C@@H](O)C[C@@]12C", "note": "[triamcinolone hexacetonide]", "values": [{"measurement": "HPA-axis suppression", "setting": "HPA axis", "result": 75, "unit": "%"}, {"measurement": "plasma levels", "setting": "[4]; 20 mg intra-articular injection, day 3", "result": "3 to 4", "unit": "ng/mL"}]}, {"molecule": "Triamcinolone Acetonide Phosphate", "values": [{"measurement": "CL", "setting": "[5]; Mean ± SD", "result": "15.6 ± 3.13", "unit": "mL/min/kg"}, {"measurement": "T1/2β", "setting": "[5]; Mean ± SD", "result": "2.71 ± 1.09", "unit": "h"}, {"measurement": "Vc", "setting": "[5]; Mean ± SD", "result": "0.944 ± 0.314", "unit": "L/kg"}, {"measurement": "fu", "setting": "[5]; Mean ± SD", "result": "0.093 ± 0.015"}, {"measurement": "k21", "setting": "[5]; Mean ± SD", "result": "0.937 ± 0.261", "unit": "h^1"}, {"measurement": "CL", "setting": "[5]; individual rats 1-3", "result": "19.2 mL/min/kg and 13.2 mL/min/kg and 14.5 mL/min/kg"}, {"measurement": "T1/2β", "setting": "[5]; individual rats 1-3", "result": "1.55 h and 3.71 h and 2.87 h"}, {"measurement": "Vc", "setting": "[5]; individual rats 1-3", "result": "0.684 L/kg and 0.856 L/kg and 1.29 L/kg"}, {"measurement": "fu", "setting": "[5]; individual rats 1-3", "result": "0.084 and 0.110 and 0.085"}, {"measurement": "k12", "setting": "[5]; individual rats 1-3", "result": "1.64 h^1 and 1.79 h^1 and 1.59 h^1"}, {"measurement": "k21", "setting": "[5]; individual rats 1-3", "result": "1.04 h^1 and 0.640 h^1 and 1.13 h^1"}]}]}
